What was measured:
[1] = tested on: SW480 cells in zebrafish larvae; test: In vivo anticancer capability in zebrafish cancer model; conditions: micro-injection, observed 2 days after injection
Procedure: To examine the anticancer activity of the Dox-loaded RH-(GLFG)3 nanoparticles in vivo, we generated zebrafish cancer models using the SW480 cell line. Briefly, zebrafish eggs were incubated in a fish incubator for 2 days and dechorionated. The SW480 cells were stained using cell fluorescence tracker (cell tracker green CMFDA) for 30 min in a cell culture incubator. The labeled cells were then harvested using trypsin-EDTA and washed twice with PBS containing 10% FBS. The labeled cells were then injected into zebrafish larvae by micro-injection. The larvae were split in 96-well microplates containing TAP-water. After 2 days of incubation, Free Dox and Dox-loaded RH-(GLFG)3 nanoparticles (LL-Dox and DD-Dox) were injected into zebrafish larvae by micro-injection. After 2 days of incubation, the larvae were anesthetized using 0.04% tricaine and observed under a fluorescence microscope (Leica DMi8, Wetzlar, Germany).

HeLa cells [2] = test: Cellular uptake of Dox-loaded nanoparticles, confocal microscopy; assay type: cell-based; conditions: 1 μM, 16 h (results text; method: 2 μM, 6 h)
Procedure: The cellular uptake of Dox-loaded RH-(GLFG)3 nanoparticles in HeLa cells was analyzed using confocal microscopy. HeLa cells were seeded to 1.0 × 10^4 cells/well in an 8-well confocal plate and incubated for 24 h. After incubation, the cells were treated using Free Dox, DD-Dox, and LL-Dox at a final concentration of 2 μM and incubated for 6 h. The nuclei of the cells were stained with 20 μM Hoechst 33324 for 15 min. The prepared cells were observed using confocal microscopy. To understand cellular uptake in tissue, we examined 3D spheroids of HeLa cells. For the formulation of the 3D spheroids, 1.0 × 10^4 cells were seeded in a round shaped 96-well plate coated with 1% agarose and incubated for 3 days. After incubation, the cells formed a globular shaped 3D tissue. The prepared 3D spheroids were treated using Free Dox, DD-Dox, and LL-Dox at a final concentration of 1 μM. The 3D spheroid medium was changed every 2 days for the tissue growth. After 7 days, the 3D spheroids were observed using confocal microscopy.

HeLa cells [3] = test: LDH assay (membrane damage); assay type: cell-based; conditions: 24 h, 0.025–0.2 μg/μL, relative to 20% Tween-20 control
Procedure: (§1) The cytotoxicity of the RH-(GFLG)3 nanoparticles was examined using WST-1, LDH, and hemolysis assays. For the WST-1 assay, the HeLa cells were seeded to 1.0 × 10^4 cells/well in a 96-well microplate and incubated for 24 h. PEI 25kD and LL, LD, DL, and DD were prepared at various concentrations (0.025 to 0.2 μg/μL). PEI 25kD, a cationic polymer, was introduced as a positive control. After 24 h of incubation, 10 µL WST-1 was added to each well and incubated for 2 h. WST-1 formazan was measured using a VERASmax microplate reader (Molecular Devices, LLC, Sunnyvale, CA, USA) at an absorbance of 450 nm. For the LDH assay, 20% Tween-20 treated cells were examined as maximum LDH activated control to calculate the LDH activity (%) of samples. After 24 h incubation, 10 μL of the supernatant of each sample was collected and added to a working reagent containing 0.2 mM NADH and 2.5 mM sodium pyruvate in a 96-well microplate and incubated for 45 min at 37 °C. Finally, the LDH activity was quantified by measuring the absorbance at 490 nm using a microplate reader.

[4] = Dynamic light scattering (DLS) size of peptide nanoparticles; assay type: physicochemical; conditions: empty peptide nanoparticles 0.5 mg/mL, Tables S1 and S2, mean ± SEM (n=3)
Procedure: (§2) The size of the peptide nanoparticles at concentrations of 0.5 mg/mL was analyzed by dynamic laser light scattering (DLS) with ELS-Z2 (Photal, Otsuka Electronics Co., Ltd., Otsuka, Japan) and a Nano-ZS (Malvern Instruments Ltd., London, UK). The ξ-potential of the peptide nanoparticles was measured using a Nano-ZS. To confirm their stability, the LL and DD nanoparticles were monitored using a DLS instrument every 5 days for 30 days. The morphology of the LL peptide nanoparticles was measured using a field emission scanning electron microscope (FE-SEM). Thereafter, the dried samples of peptide nanoparticles were coated with osmium and analyzed by FE-SEM (Hitachi, Tokyo, Japan) under a 5–10 kV acceleration voltage. The self-assembled structure of the peptide nanoparticles was analyzed using CD spectroscopy (J-1000, Jasco, Hachioji, Japan). The LL and DD peptide nanoparticle solutions were measured in a quartz cuvette at wavelengths of 190 to 260 nm.
(§3) Doxorubicin (Dox) was encapsulated in the RH-(GFLG)3 peptide nanoparticles to evaluate their potential as drug delivery carriers. […] The prepared Dox-loaded RH-(GFLG)3 nanoparticles (LL-Dox, LD-Dox, DL-Dox, and DD-Dox) were stored at 4 °C, and their size diameter and ξ-potential were measured using DLS and zeta instruments of Nano ZS90 (Malvern, Worcestershire, UK) to confirm the formulation of the nanostructure.

human RBCs = test: Hemolysis assay; assay type: cell-based; conditions: 0.1 and 0.2 μg/μL, 2 h at 37 °C, absorbance 450 nm, Triton X-100 0.2% as maximum
Procedure: The hemolysis of LL, LD, DL, and DD nanoparticles was investigated using human blood cells. PEI 25kD was introduced as a positive control. Briefly, fresh human blood was obtained from healthy volunteers. Coagulation of human blood was prevented using ethylenediaminetetraacetic acid (EDTA). The human blood was centrifuged at 5000 rpm for 5 min to separate the red blood cells (RBCs) from the serum. The isolated RBCs were washed twice using PBS and diluted to 2.0 × 10^8 cells/mL in PBS. To evaluate the hemolytic activity, Triton X-100 0.2% treated samples were used as the maximum hemolytic activity control. A 0.25 mL volume of the prepared RBCs was mixed with 0.25 mL of each sample (final concentration of 0.1 μg/μL and 0.2 μg/μL, respectively). The mixed samples were incubated for 2 h at 37 °C. After incubation, the samples were centrifuged at 5000 rpm for 5 min, and […] of the supernatant of each sample was collected. The supernatant was diluted 10-fold using PBS to a final volume of 100 μL. The prepared supernatant solution was added to a 96-well microplate and measured at 450 nm using a VERSAmax microplate reader (Molecular Devices, San Jose, CA, USA).

cathepsin B = molecular target: T1, cathepsin B (Homo sapiens, UniProt P07858); test: Enzyme-responsiveness test with cathepsin B, MALDI-TOF MS; assay type: in vitro ADME; conditions: 0.02 μM cathepsin B in activation buffer, 37 °C, 6 h; versus control without enzyme
T1 construct: purchased Sigma-Aldrich (Seoul, Korea)
Procedure: The enzyme-responsive ability of RH-(GFLG)3 was analyzed using matrix assisted laser mass spectroscopy (MALDI-TOF, Voyager TOF Mass Spectrometer, Applied Biosystems Inc., Carlsbad, CA, USA). The LL, LD, DL, and DD peptides were treated with 0.02 μM of the enzyme cathepsin B in an activation buffer at 37 °C for 6 h. To compare enzyme-responsive ability, control groups without enzyme were treated identically in an activation buffer at 37 °C for 6 h. The prepared peptides were measured using MALDI-TOF (Voyager TOF Mass Spectrometer) in a α-cyano-4-hydroxycinnamic acid (CHCA) matrix.

HeLa cells [5] = test: Cytotoxicity of peptide nanoparticles, WST-1 / MTT assay; assay type: cell-based; conditions: 24 h, highest concentration of 0.2 μg/μL, mean ± SEM (n = 3)
Procedure: as §1

SW480 cells = test: Anticancer effect, MTT assay in SW480 cells; assay type: cell-based; conditions: SW480, 24, 48 and 72 h, peptide without Dox
Procedure: (§4) The anticancer activity of Dox-loaded peptide nanoparticles in HeLa and SW480 cells was determined with an MTT assay. Cells were seeded to 1.0 × 10^4 cells/well in a 96-well microplate and incubated for 24 h. After incubation, the cells were treated using Free Dox and Dox-loaded RH-(GLFG)3 nanoparticles to a final concentration of 0.25–2 μM and incubated for 24–72 h. After incubation, the prepared samples were analyzed following the method described above. To understand the anticancer effect in tissue, 3D spheroids of HeLa cells were prepared as described above. The prepared 3D spheroids were treated with 1 μM Free Dox, DD-Dox, and LL-Dox and incubated for 1–7 days. The morphology of the 3D spheroids was observed using an objective microscope every day. After 7 days of incubation, the viability of the spheroids was analyzed using an MTT assay. The spheroids were added to the MTT solution (2 mg/mL in DPBS) and incubated for 4 h. The supernatant was removed, and 150 μL of DMSO was added to each sample. The prepared samples were measured using a micro reader (Molecular Devices, San Jose, CA, USA) at an absorbance of 570 nm.

HeLa cells [6] = test: Anticancer effect, MTT assay in HeLa cells; assay type: cell-based; conditions: HeLa, 24, 48 and 72 h, peptide without Dox
Procedure: as §4

HeLa cells [7] = test: Cellular uptake of Nile Red-tagged nanoparticles (confocal microscopy, FACS); assay type: cell-based; conditions: Nile Red-tagged nanoparticles 0.2 mg/mL, 6 h confocal microscopy (16 h FACS)
Procedure: The cellular uptake ability of the peptide nanoparticle was analyzed using confocal microscopy (Zeiss International, Oberkochen, Germany) and fluorescence-activated cell sorting (FACS) (BD Biosciences, San Jose, CA). For confocal microscopy assays, 1.0 × 10^4 cells/well were seeded in an 8-well confocal plate and incubated for 24 h. Nile Red-tagged LL, DL, DL, and DD peptide nanoparticles were treated to a final concentration of 0.2 mg/mL, and the cells were incubated for 6 h. After incubation, the cell nuclei were stained with 20 μM Hoechst 33324 for 15 min. The prepared cells were observed using confocal microscopy. In the FACS assay, 1.0 × 10^6 cells/well were seeded in 6-well microplate and incubated for 24 h. After incubation, the Nile Red-tagged peptide nanoparticles were treated to a final concentration of 0.2 mg/mL, and cells were incubated for 16 h. After incubation, the cells were washed twice using DPBS and harvested using trypsin-EDTA. The cells were collected by centrifugation (1500 rpm, 3 min) and resuspended in 500 μL of DPBS. The prepared samples were transferred to a FACS tube and analyzed using FACS.

[8] = Critical aggregation concentration with Nile Red probe; assay type: physicochemical
Procedure: The critical aggregation concentration (CAC) value of the RH-(GFLG)3 nanoparticles was analyzed using the hydrophobic probe Nile Red. Briefly, the peptide nanoparticles were prepared at various concentrations ranging from 0.001 to 0.3 mg/mL to make a final volume of 1 mL. Then, the prepared nanoparticle solutions were mixed with 5 μL of 40 μM Nile Red solution in ethanol to a final concentration of 0.2 μM. The samples were dried to remove the ethanol using nitrogen gas stream and incubated for 1 h at room temperature (25 °C). After incubation, prepared samples were measured using fluorescence spectroscopy (PerkinElmer, Waltham, MA, USA) at an excitation wavelength of 515 nm and emission wavelengths of 550–750 nm. The CAC of the peptide nanoparticles was analyzed by fluorescence intensity at 650 nm.

[9] = Storage stability of nanoparticles monitored by DLS; assay type: physicochemical; conditions: DLS every 5 days for 30 days at 4 °C; mean ± SEM (n = 3)
Procedure: as §2

[10] = ξ-potential of peptide nanoparticles (Nano-ZS); assay type: physicochemical; conditions: empty peptide nanoparticles; Tables S1 and S2; mean ± SEM (n=3); in mV (unit assumed)
Procedure: as §2, §3

[11] = FE-SEM morphology of peptide nanoparticles; assay type: physicochemical; conditions: dried samples, osmium coated, 5–10 kV
Procedure: as §2

| Hydrodynamic diameter [4] | Polydispersity index (PDI) [4] | degradation by cathepsin B (peak at 1433 m/z in MALDI-TOF mass spectrum) (cathepsin B) | critical aggregation concentration (CAC) ([8]; Nile Red 0.2 μM, peptide 0.001–0.3 mg/mL, 1 h at 25 °C, fluorescence ex 515 nm, intensity at 650 nm) | CAC (printed in Figure 2E) ([8]; Nile Red probe, fluorescence at 650 nm) | nanoscale diameter during storage [9] | Ξ-Potential [10] | size of globular nanostructure in FE-SEM images [11] | Compound | anticancer effect on cell tracker labelled SW480 cells (fluorescence) [1] | cellular uptake ability of Dox (HeLa cells [2]) | LDH release (HeLa cells [3]) | hemolysis (human RBCs) | cytotoxicity (cell viability) (HeLa cells [5]) | cytotoxicity of peptide control groups (SW480 cells) | cytotoxicity of peptide control groups (HeLa cells [6]) | cellular uptake ability (HeLa cells [7]) |
| --- | --- | --- | --- | --- | --- | --- | --- | --- | --- | --- | --- | --- | --- | --- | --- | --- |
|  |  |  |  |  |  |  |  | COc1cccc2c1C(=O)c1c(O)c3c(c(O)c1C2=O)C[C@@](O)(C(=O)CO)C[C@@H]3O[C@H]1C[C@H](N)[C@H](O)[C@H](C)O1 [Free Dox, doxorubicin] | low anticancer effect | low cellular uptake ability |  |  |  |  |  |  |
| 118 ± 7.7 nm | 0.245 ± 0.010 | no peak at 1433 m/z | around 0.02 mg/mL | 0.02 µg/µL | less than 200 nm | 30.1 ± 0.4 | smaller than 100 nm | Arg-His-(Gly-Phe-Lue-Gly)3 [LL] |  |  | negligible LDH release | negligible hemolysis | negligible cytotoxicity | negligible cytotoxicity | negligible cytotoxicity | higher uptake |

From publication PMC8779831, “Enzyme-Responsive Amphiphilic Peptide Nanoparticles for Biocompatible and Efficient Drug Delivery” (Pharmaceutics, 2022)
